# Patent US20190070170A1, “METHOD OF S[…]-1” (Macau University of Science and Technology, priority 2017, published 2019)
# How the values were obtained:
# PGE2 [1] = test: PGE2 production in LPS-stimulated rat peritoneal macrophages (ELISA); assay type: cell-based; settings: SIN 160, 320 or 640 μM or 0.5 μM DEX 1 h, then LPS 1 μg/ml 24 h
# Procedure: Sprague-Dawley (SD) rats from the University of Hong Kong were housed in cages with free access to food and water. Peritoneal macrophages of SD rats were isolated as described in Liu J. et al., Pharmacological research 2016, 111:303-315. Briefly, untreated rats were sacrificed and after laparotomy, about 50 ml cold sterile Hank's balanced salt solution (HBSS) was used to lavage the peritoneal cavity at twice, and then the peritoneal lavage fluid was collected and centrifuged at 1500 rpm for 10 min. The cell pellets was suspended at a density 1.5×10^6 cells/ml in pre-hearted DMEM medium with 10% heat-inactivated FBS, penicillin G (100 units/ml), streptomycin ([…]), and L-glutamine (2 mM), followed by seeding in 6-well plates at a density of 4.5×10^6 cells and incubation for 2 h. Then the medium were discarded to remove the non-adherent cells. The adherent cells were further washed for two times with pre-heated DMEM medium to remove floating cells. Next, cells were pre-treated with various concentration of SIN for 1 h, followed by stimulation with LPS (1 μg/ml).
# RAW264.7 cells and rat peritoneal macrophages were seeded in a 96-well plate at density of 1.4×10^4 and 1.5×10^5 cells, respectively. […] The optical density was measured at 570 nm against a reference wavelength of 650 nm using a microplate UV/VIS spectrophotometer (Tecan, Mannedorf, Switzerland). […]
# PGE2 [2] = test: RNA interference experiment of mPGES-1: PGE2 production in mPGES-1 knockdown RAW264.7 cells; assay type: cell-based, mouse; settings: mPGES-1 siRNA RAW264.7 cells; SIN 640 μM or DEX 0.5 μM 1 h, LPS 10 ng/mL 18 h
# Procedure: RAW264.7 cells were transfected with ON-TARGETplus SMARTpool mPGES-1 siRNA (mPGES-1 siRNA) or nonspecific siRNA (NS siRNA) using HiPerFect transfection reagent according to the manufacturer's recommended protocols. After 24 h of transfection, the cells were treated with or without SIN (640 μM) or DEX (0.5 μM) in complete growth medium. After 1 h, all groups were stimulated with LPS (10 ng/mL) for 18 h except the control group. Then the cell culture media were collected and stored at −20° C. for later analysis of the levels of PGE2. Cells were harvested for qRT-PCR, the mouse primers used are listed as follows: […]
# mPGES-1 = mPGES-1 protein expression in hind paws of CIA DBA/1 mice; assay type: in vivo; settings: SIN 100 mg/kg i.p. or MTX 10 mg/kg/week p.o.
# Procedure: (§1) Female DBA/1 mice (8-9 weeks old) were purchased from Shanghai SiLaike (SLAC) Laboratory Animal Company (Shanghai, China) and fed with a chow diet and water at room temperature. Equal volume of complete Freuend's adjuvant (CFA) and Bovine Type II Collagen (CII) were mixed and emulsified using a homogenizer (13,000 rpm) on ice. On day 0, DBA/1 mice were immunized by injecting 50 μl of CII in CFA in the tail, approximately 2 cm from the base of the tail. […] The incidence of joint swelling in each group was recorded every two days since drug treatment. […]
# (§2) Frozen paws were pulverized in liquid nitrogen using a stainless steel mortar and pestle, then re-suspended in 8 volumes of ice-cold PBS from Invitrogen (San Diego, Calif., USA) with 2.6 mM DTT from Promega (Madison, Wis., USA) and 2×Complete Protease Inhibitor mixture from Roche (Mannheim, Germany), and homogenized on ice bath using a tissue homogenizer from T25 digital, IKA (Stanfen, Germany) at 10,000 rpm/min for 5 min. […] The protein concentrations were measured using a Bio-Rad protein assay kit (Hercules, Calif., USA). […]
# (§3) Whole-cell and nuclear proteins were obtained using RIPA lysis buffer (CST, Boston, Mass., USA) and Nuclear and Cytoplasmic Extraction Reagents kit from Thermo Scientific (Asheville, N.C., USA), respectively. […] The levels of protein expression were measured using Odyssey v3.0 software from Li-COR (Lincoln, Nebr., USA).
# COX-1 = COX-1 protein expression in hind paws of CIA DBA/1 mice; assay type: in vivo; settings: SIN 100 mg/kg i.p.
# Procedure: as §1, §2, §3
smiles,measurement,setting,value
"COC1=C[C@@H]2[C@@H]3Cc4ccc(OC)c(O)c4[C@]2(CCN3C)CC1=O [SIN, sinomenine]",PGE2 production,PGE2 [1],significant inhibition of PGE2 production in a dose dependent manner
same,change of the compound's inhibitory effect on PGE2 production by mPGES-1 knockdown,PGE2 [2],not affected
same,mPGES-1 protein expression in inflamed hind paws,mPGES-1,significantly decreased
same,COX-1 expression in paw tissues,COX-1,did not produce observable changes
